Reference: patent publication US20110118220A1, “Composition of bifonazole and its use” (priority 2009, published 2011)

What was measured:
[1] = Long-term toxicity study by skin exposure; format: in vivo, rats; details: rat
From the text: Observe the abnormal reaction and degree of reversibility of the reaction caused by skin penetration through long-term exposure the animal's skin to subject drug.

[2] = test system: candida such as candida Albicans; assay: In vitro antifungal activity (MIC), candida; format: cell-based
From the text: (§1) To understand the in vivo and in vitro antibacterial effects, and to determine the in vivo and in vitro antibacterial activity through measuring the compound Bifonazole cream (Bifonazole/Triamcinolone acetonide acetate) on common pathogenic fungi of the minimum inhibitory concentration (MIC).

[3] = test system: 543 common fungi; assay: In vitro pharmacodynamics of nine antifungal agents against 543 common fungi; format: cell-based
From the text: as §1

[4] = test system: filamentous fungi represented by Trichophyton rubrum; assay: In vitro antifungal activity (MIC), filamentous fungi; format: cell-based
From the text: as §1

[5] = Allergy study (repeated skin contact); format: in vivo
From the text: Observe the immune system response on skin after repeating skin contact animal skin with testing object.

| Structure (SMILES) | minimum toxic dosage on main target organ (liver) [1] | antibacterial activity on candida [2] | antimicrobial activity against common fungal skin infections compared with econazole, ketoconazole, clotrimazole and miconazole [3] | antibacterial activity on filamentous fungi [4] | average response ([5]; 24 hours) | average response ([5]; 48 hours) | average response ([5]; 72 hours) | average response ([5]; by instance) | allergenic rate ([5]; in vivo) | erythema and edema ([5]; in vivo) |
| --- | --- | --- | --- | --- | --- | --- | --- | --- | --- | --- |
| c1ccc(-c2ccc(C(c3ccccc3)n3ccnc3)cc2)cc1 (stereo not shown) [Bifonazole] | 2 g/kg | a certain antibacterial activity | slightly stronger | strong antibacterial activity | – | – | – | – | – | – |
| O=[N+]([O-])c1ccc(Cl)c([N+](=O)[O-])c1 [2,4-dinitro-chlorobenzene] | – | – | – | – | 2.4 | 2.7 | 2.9 | 2.4 | 100% | 10 animals all have erythema and edema |
